Tests used:
BPV-1 [1] = experiment: BPV-1 focus-forming assay, virus preincubated with compound (Table C); assay type: cell-based, bovine papilloma virus; details: C127 cell line
Description: In a similar study using the BPV-1 focus forming assay, the effect of the cellulose sulfate and dextran sulfate on BPV was tested. In this study, cellulose sulfate tested was as described above. Dextran sulfate used was from Dextran Products Limited (Lot DSM-122) prepared using dextan of average Mr of about 500,000 (based on viscosity) and is estimated to have a final average Mr greater than about 500,000 and may be about 1 to 1.1 million.
Microbicidal activity of the compounds was tested using the well-characterized BPV-1 focus-forming assay (Dvoretzky, I., R. Shober, S. K. Chattopadhyay, and D. R. Lowy. 1980. A quantitative in vitro focus assay for bovine papilloma virus. Virology 103:369-375), with modifications for microbicide testing (Hermonat, P. L., (1992) supra; Howett, M. K., et al. (1999) supra. The terms inhibiting or microbicidal activity when used are intended to refer broadly to microbe infection and/or microbe inactivating effect.
Aliquots of BPV-1 containing approximately 100-200 focus-forming units were preincubated with dilutions of compounds for 10 min at 37° C. prior to addition to cultures of mouse C127 cells. Cultures of C127 cells were set up in T25 tissue culture flasks (Corning, N.Y.), containing 3×10^5 cells per flask. Virus-compound mixtures in a total of 50 μl were then added to flasks in 1 ml of media, and an additional 3 ml of media added after 24 hrs culture. Media was changed every 3-4 days for a period of 2 weeks. Foci were enumerated following staining of the monolayer with crystal violet and counting stained foci microscopically. Each concentration of compound was tested in duplicate, and the mean±SD of foci number for the preincubation virus-drug concentration for each compound is shown below as Table C.
Clones were derived from the parental C127 cell line because of the consistent failure of BPV-1 to induce foci following several cell passages of the uncloned parental cell line. One clone, labeled C127-D10, which produced foci upon BPV-1 infection, was chosen for a repeat testing of the compounds. When this clone was tested for microbicidal activity, less compound was required to achieve high reduction in BPV-1-induced foci when compared to the uncloned parental-C127 cells.

BPV-1 [2] = experiment: BPV-1 focus-forming assay, cells pre-incubated with compound and washed before virus (Table D); assay type: cell-based, bovine papilloma virus; details: for Average ± standard deviation (foci/well): C127-D10 cells, washed before virus
Description: Microbicidal activity of compounds was also tested by pre-incubation of cells with compounds followed by addition of virus to compound-coated C127 cells. In these experiments, dilutions of compounds were added to cultures of C127 cells, incubated for 1 hr at 37° C., washed 3 times with media to remove unbound compound, prior to addition of approximately 100 focus-forming units of BPV-1. The cultures were incubated for an additional hour, washed three times to remove unbound virus, then the incubation was continued for two weeks with media changes every 3-4 days and foci counted as described above.
Pre-incubation of C127-D10 cells with compounds prior to addition of BPV-1 was tested to determine whether the microbicidal effects of CS and DS extended to a blockage of virus interaction with cell surfaces. In these experiments, titrations of compounds were added to cell cultures followed by washing away unbound reagent prior to addition of virus. After a one-hour incubation with virus, unbound virus was removed by washing and the cultures monitored for foci after two weeks.

HPV-11 = experiment: RT-PCR ELISA for transient infection of human A431 cells, HPV-11; assay type: cell-based, human papilloma virus; details: with virus (HPV-11)
Description: (§1) Cellulose sulfate and dextran sulfate were each prepared as a 2 mg/ml solution in 0.9% NaCl and tested for microbicidal activity using the in vitro HPV transient infection assay originally described by Smith and colleagues (Smith, L. H., C. Foster, M. E. Hitchcock, and R. Isseroff. 1993. In vitro HPV-11 infection of human foreskin. J. Invest. Dermatol. 101:292-295) with some modifications (Ludmerer, S. W., W. L. McClements, X. M. Wang, J. C. Ling, K. U. Jansen, and N. D. Christensen. 2000. HPV11 mutant virus-like parties elicit immune responses that neutralize virus and delineate a novel neutralizing domain. Virology 266:237-245). An ELISA-based read-out of Optical Density (OD) values using alkaline phosphatase cleavage of the substrate p-nitrophenyl phosphate was also used to measure HPV infection as described below.
(§2) A modification of the RT-PCR assay that incorporates an ELISA-based read-out (Boehringer-Mannheim) was also included to assess microbicidal activity. Replicate cell cultures of A431 cells were infected with an aliquot of infectious HPV virions as described above. After 4 days of culture, cells were harvested and RNA extracted. RNA was subjected to RT using downstream anti-sense (reverse) primers for HPV-11 or HPV-40 and β-actin (as a control/housekeeping cellular transcript) to initiate cDNA synthesis. The cDNA was processed through 2 sets of 30 cycles of PCR amplification using nested primers: the second set of cycles used digoxygenin (DIG)-dUTP to label the PCR products with DIG. DIG-labeled PCR products were denatured then renatured together with a biotinylated oligonucleotide specific for the targeted PCR product. Biotinylated products were detected in ELISA with plates coated with streptavidin (to capture the biotinylated target PCR product) then anti-DIG antibody and substrate. Labeled PCR products were added directly to ELISA plates, or titrated at 10-fold dilutions in duplicate for each cell culture for each virus dilution.

HPV-40 = experiment: RT-PCR ELISA for transient infection of human A431 cells, HPV-40; assay type: cell-based, human papilloma virus; details: with virus (HPV-40)
Description: as §1
The RT-PCR assay to detect HPV-40 infection was designed similarly for the detection of HPV-11 infection as described above.
as §2
The microbicidal activity was assessed either as the detection of ethidium stained PCR products or as an ELISA-based read-out as described above. […] An initial experiment was conducted to test the specificity of the ELISA-based RT-PCR assay using HPV-11 and HPV-40 infection of A431 cells (Table E).

[3] = system: human papilloma virus-like particles (VLP's); details: Joyce et al. 1999; cited from earlier work
papillomaviruses = details: literature; cited from earlier work
[4] = 100 μg/ml at viral pretreatment

Substance | inhibition of papilloma virus infectivity (BPV-1 [1]; 100 μg/ml) | inhibition of papilloma virus infectivity (BPV-1 [1]; 1 mg/ml) | Average ± standard deviation (foci/well) (BPV-1 [2]; 10 μg/ml) | reduction of BPV-1-induced foci (BPV-1 [2]; 10 μg/ml, cells pre-treated, washed) | Average ± standard deviation (foci/well) (BPV-1 [2]; 100 μg/ml) | Average ± standard deviation (foci/well) (BPV-1 [2]; 1,000 μg/ml) | Average ± standard deviation (foci/well) (BPV-1 [2]; 10,000 μg/ml) | Mean (SD) of O.D. reading for RT-PCR ELISA, HPV-11 probe (HPV-11; 10 μg/ml at viral pretreatment) | Mean (SD) of O.D. reading for RT-PCR ELISA, HPV-11 probe (HPV-11; [4]) | Mean (SD) of O.D. reading for RT-PCR ELISA, HPV-40 probe (HPV-40; 10 μg/ml at viral pretreatment) | Mean (SD) of O.D. reading for RT-PCR ELISA, HPV-40 probe (HPV-40; [4]) | Mean (SD) of O.D. reading for RT-PCR ELISA, HPV-40 probe (HPV-40; 1000 μg/ml at viral pretreatment) | binding of VLP's to HaCaT cells [3] | microbicidal activity against papillomaviruses (papillomaviruses)
Dextran sulfate | moderate inhibition | very high inhibition | 31 ± 16.9 | substantial reduction in foci | 15 ± 4.6 | 4 ± 2.6 | 0 | 0.023 (0.000) O.D. | 0.035 (0.000) O.D. | 0.042 (0.007) O.D. | 0.375 (0.073) O.D. | 0.006 (0.007) O.D. | inhibited | 
heparin [reference compound] |  |  |  |  |  |  |  |  |  |  |  |  | inhibited | 
nonoxynol-9 |  |  |  |  |  |  |  |  |  |  |  |  |  | ineffective

Reference: patent US7235536B2, “Cellulose sulfate and other sulfated polysaccharides to prevent and treat papilloma virus infection and other infections” (Rush Presbyterian-St. Luke's Medical Center, priority 2000, dated 2007)
